Data taken from patent US20120101100A1 (priority 2008, published 2012).

Molecular target: S. aureus GyrB ATPase (Staphylococcus aureus, UniProt P0A0K8)
Assay: S. aureus (SAU) GyrB ATPase inhibition, malachite green phosphate detection (E. coli GyrA + S. aureus GyrB)
Assay type: biochemical
Conditions: compound concentration of 1.0 μM unless otherwise noted; average value where assay was carried out more than once; read-out: S. aureus (SAU) GyrB ATPase % Inhibition
How it was run: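 Phosphate from ATP hydrolysis (500 μM ATP) read as malachite green/molybdate absorbance at 650 nm after acid quench. Reaction: 1.25 nM S. aureus GyrB plus 1.25 nM E. coli GyrA, sheared DNA, Hepes pH 7.5 with Mg2+. IC50 fitted over 10 concentrations, normalised to DMSO (2%) and novobiocin (2 μM) controls.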

Chain of S. aureus GyrB ATPase (P0A0K8 whole entry): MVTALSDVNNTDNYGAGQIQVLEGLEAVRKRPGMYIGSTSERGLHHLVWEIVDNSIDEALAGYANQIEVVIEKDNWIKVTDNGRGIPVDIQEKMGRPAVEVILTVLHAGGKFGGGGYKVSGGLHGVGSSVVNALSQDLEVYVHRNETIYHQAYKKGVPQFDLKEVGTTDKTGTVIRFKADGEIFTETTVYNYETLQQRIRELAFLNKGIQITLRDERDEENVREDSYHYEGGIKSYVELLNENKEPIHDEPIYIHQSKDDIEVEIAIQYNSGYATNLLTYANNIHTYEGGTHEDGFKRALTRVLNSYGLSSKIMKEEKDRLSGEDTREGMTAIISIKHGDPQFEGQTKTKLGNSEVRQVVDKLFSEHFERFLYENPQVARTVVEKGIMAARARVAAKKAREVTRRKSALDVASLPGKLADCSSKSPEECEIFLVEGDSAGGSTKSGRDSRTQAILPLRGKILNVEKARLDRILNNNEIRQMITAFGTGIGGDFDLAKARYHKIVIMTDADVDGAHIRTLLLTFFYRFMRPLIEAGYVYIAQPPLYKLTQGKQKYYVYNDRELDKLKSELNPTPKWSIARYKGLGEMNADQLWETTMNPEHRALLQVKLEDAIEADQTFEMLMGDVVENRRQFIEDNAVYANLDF
Chain of S. aureus GyrB ATPase (P0AES4 whole entry, further chain): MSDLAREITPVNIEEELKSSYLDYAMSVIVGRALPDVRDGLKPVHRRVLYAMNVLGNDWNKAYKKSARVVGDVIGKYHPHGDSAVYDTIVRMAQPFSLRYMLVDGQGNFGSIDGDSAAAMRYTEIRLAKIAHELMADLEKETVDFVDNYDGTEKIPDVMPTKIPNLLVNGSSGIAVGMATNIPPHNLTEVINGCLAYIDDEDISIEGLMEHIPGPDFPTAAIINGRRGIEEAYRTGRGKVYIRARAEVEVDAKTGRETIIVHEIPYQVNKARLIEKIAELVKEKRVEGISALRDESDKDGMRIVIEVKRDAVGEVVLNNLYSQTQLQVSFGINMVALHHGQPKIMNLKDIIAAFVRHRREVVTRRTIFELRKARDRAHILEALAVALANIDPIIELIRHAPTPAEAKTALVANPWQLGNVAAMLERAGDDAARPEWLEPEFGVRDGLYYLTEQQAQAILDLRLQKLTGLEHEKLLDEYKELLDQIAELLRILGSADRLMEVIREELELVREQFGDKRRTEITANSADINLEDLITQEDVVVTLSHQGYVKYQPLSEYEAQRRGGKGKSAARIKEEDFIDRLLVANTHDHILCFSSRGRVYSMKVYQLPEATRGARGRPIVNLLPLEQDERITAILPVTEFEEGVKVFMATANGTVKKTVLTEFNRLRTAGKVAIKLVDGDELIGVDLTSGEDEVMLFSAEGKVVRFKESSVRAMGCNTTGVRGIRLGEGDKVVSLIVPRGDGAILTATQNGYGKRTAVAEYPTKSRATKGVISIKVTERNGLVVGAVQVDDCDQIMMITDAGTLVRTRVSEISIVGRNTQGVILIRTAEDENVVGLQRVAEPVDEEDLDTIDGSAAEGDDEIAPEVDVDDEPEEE

Compound: CCNC(=O)Nc1cc(-c2nc(-c3ccccc3)cs2)c(-c2ccnc(-c3n[nH]c(=O)o3)c2)cn1 [Example 95, 1-ethyl-3-(2′-(5-oxo-4,5-dihydro-1,3,4-oxadiazol-2-yl)-4-(4-phenylthiazol-2-yl)-3,4′-bipyridin-6-yl)urea]
- inhibition at 1 µM: 99%

Compound: CCNC(=O)Nc1cc(-c2nc(-c3ccccc3)cs2)c(-c2ccnc(-c3nnc(C)o3)c2)cn1 [Example 96, 1-ethyl-3-(2′-(5-methyl-1,3,4-oxadiazol-2-yl)-4-(4-phenylthiazol-2-yl)-3,4′-bipyridin-6-yl)urea]
- inhibition at 1 µM: 100%

Compound: CCNC(=O)Nc1cc(-c2nc(-c3ccccc3)cs2)c(-c2nc(-c3ncnn3C)c(-c3nnc(C)o3)s2)cn1 [Example 97, 1-ethyl-3-(5-(5-(5-methyl-1,3,4-oxadiazol-2-yl)-4-(1-methyl-1H-1,2,4-triazol-5-yl)thiazol-2-yl)-4-(4-phenylthiazol-2-yl)pyridin-2-yl)urea]
- inhibition at 1 µM: 99%

Compound: CCNC(=O)Nc1cc(-c2nc(-c3ccccc3)cs2)c(-c2nc(-c3ncccn3)c(-c3nnc(C)o3)s2)cn1 [Example 98, 1-ethyl-3-(5-(5-(5-methyl-1,3,4-oxadiazol-2-yl)-4-(pyrimidin-2-yl)thiazol-2-yl)-4-(4-phenylthiazol-2-yl)pyridin-2-yl)urea]
- inhibition at 1 µM: 100%

Compound: CCNC(=O)Nc1cc(-c2nc(C(F)(F)F)cs2)c(-c2cc(-c3n[nH]c(=O)o3)cnc2OCCN2CCN(C)CC2)cn1 [Example 99, 1-Ethyl-3-(2′-(2-(4-methylpiperazin-1-yl)ethoxy)-5′-(5-oxo-4,5-dihydro-1,3,4-oxadiazol-2-yl)-4-(4-(trifluoromethyl)thiazol-2-yl)-3,3′-bipyridin-6-yl)urea]
- inhibition at 1 µM: 97%

Compound: CCNC(=O)Nc1cc(-c2nc(C(F)(F)F)cs2)c(-c2cc(-c3n[nH]c(=O)o3)cnc2OCCN(C)C)cn1 [Example 100, 1-(2′-(2-(Dimethylamino)ethoxy)-5′-(5-oxo-4,5-dihydro-1,3,4-oxadiazol-2-yl)-4-(4-(trifluoromethyl)thiazol-2-yl)-3,3′-bipyridin-6-yl)-3-ethylurea]
- inhibition at 1 µM: 98%

Compound: CCNC(=O)Nc1cc(-c2nc(C(F)(F)F)cs2)c(-c2cc(-c3n[nH]c(=O)o3)cnc2OC)cn1 [Example 101, 1-Ethyl-3-(2′-methoxy-5′-(5-oxo-4,5-dihydro-1,3,4-oxadiazol-2-yl)-4-(4-(trifluoromethyl)thiazol-2-yl)-3,3′-bipyridin-6-yl)urea]
- inhibition at 1 µM: 97%

Compound: CCNC(=O)Nc1cc(-c2nc(C(F)(F)F)cs2)c(-c2cc(-c3n[nH]c(=O)o3)cnc2OCCN2CCOCC2)cn1 [Example 102, 1-Ethyl-3-(2′-(2-morpholinoethoxy)-5′-(5-oxo-4,5-dihydro-1,3,4-oxadiazol-2-yl)-4-(4-(trifluoromethyl)thiazol-2-yl)-3,3′-bipyridin-6-yl)urea]
- inhibition at 1 µM: 92%

Compound: CCNC(=O)Nc1cc(-c2nc(-c3ccccn3)cs2)c(-c2cncc(-c3nnc(C)o3)c2)cn1 [Example 104, 1-Ethyl-3-(5′-(5-methyl-1,3,4-oxadiazol-2-yl)-4-(4-(pyridin-2-yl)thiazol-2-yl)-3,3′-bipyridin-6-yl)urea]
- inhibition at 1 µM: 98%

Compound: CCNC(=O)Nc1cc(-c2nc(-c3ccccn3)cs2)c(-c2cncc(S(N)(=O)=O)c2)cn1 [Example 105, 6′-(3-Ethylureido)-4′-(4-(pyridin-2-yl)thiazol-2-yl)-3,3′-bipyridine-5-sulfonamide]
- inhibition at 1 µM: 101%

Compound: CCNC(=O)Nc1cc(-c2nc(-c3ccccn3)cs2)c(-c2ccnc(-c3n[nH]c(=O)o3)c2)cn1 [Example 106, 1-Ethyl-3-(2′-(5-oxo-4,5-dihydro-1,3,4-oxadiazol-2-yl)-4-(4-(pyridin-2-yl)thiazol-2-yl)-3,4′-bipyridin-6-yl)urea]
- inhibition at 1 µM: 102%

Compound: CCNC(=O)Nc1cc(-c2cnn(CC(C)C)c2)c(-c2cncc(-c3n[nH]c(=O)o3)c2)cn1 [Example 107, 1-Ethyl-3-(4-(1-isobutl-1H-pyrazol-4-yl)-5′-(5-oxo-4,5-dihydro-1,3,4-oxadiazol-2-yl)-3,3′-bipyridin-6-yl)urea]
- inhibition at 1 µM: 97%

Compound: CCNC(=O)Nc1cc(-c2ccc(N3CCOCC3)cc2)c(-c2cncc(-c3n[nH]c(=O)o3)c2)cn1 [Example 108, 1-Ethyl-3-(4-(4-morpholinophenyl)-5′-(5-oxo-4,5-dihydro-1,3,4-oxadiazol-2-yl)-3,3′-bipyridin-6-yl)urea]
- inhibition at 1 µM: 103%

Compound: CCNC(=O)Nc1cc(-c2nc(C(F)(F)F)cs2)c(-c2cc(-c3n[nH]c(=O)o3)cnc2OC2CCNCC2)cn1 [Example 109, 1-Ethyl-3-{5′-(5-oxo-4,5-dihydro-1,3,4-oxadiazol-2-yl)-2′-(piperidin-4-yloxy)-4-[4-(trifluoromethyl)-1,3-thiazol-2-yl]-3,3′-bipyridin-6-yl}urea]
- inhibition at 1 µM: 98%

Compound: CCNC(=O)Nc1cc(-c2nc(C(F)(F)F)cs2)c(-c2cc(-c3nnc(C)o3)cnc2OC2CCNCC2)cn1 [Example 110, 1-Ethyl-3-{5′-(5-methyl-1,3,4-oxadiazol-2-yl)-2′-(piperidin-4-yloxy)-4-[4-(trifluoromethyl)-1,3-thiazol-2-yl]-3,3′-bipyridin-6-yl}urea]
- inhibition at 1 µM: 95%

Compound: CCNC(=O)Nc1cc(-c2nc(C(F)(F)F)cs2)c(-c2cc(-c3n[nH]c(=O)o3)cnc2OCCC(=O)O)cn1 [Example 111, 3-({6′-[(ethylcarbamoyl)amino]-5-(5-oxo-4,5-dihydro-1,3,4-oxadiazol-2-yl)-4′-[4-(trifluoromethyl)-1,3-thiazol-2-yl]-3,3′-bipyridin-2-yl}oxy)propanoic acid]
- inhibition at 1 µM: 106%

Compound: CCNC(=O)Nc1cc(-c2nc(C(F)(F)F)cs2)c(-c2cc(-c3n[nH]c(=O)o3)cnc2OCC2CCOCC2)cn1 [Example 112, 1-Ethyl-3-{5′-(5-oxo-4,5-dihydro-1,3,4-oxadiazol-2-yl)-2′-(tetrahydro-2H-pyran-4-ylmethoxy)-4-[4-(trifluoromethyl)-1,3-thiazol-2-yl]-3,3′-bipyridin-6-yl}urea]
- inhibition at 1 µM: 95%

Compound: CCNC(=O)Nc1cc(-c2nc(C(F)(F)F)cs2)c(-c2cc(-c3nnc(C)o3)cnc2OCC2CCOCC2)cn1 [Example 113, 1-Ethyl-3-{5′-(5-methyl-1,3,4-oxadiazol-2-yl)-2′-(tetrahydro-2H-pyran-4-ylmethoxy)-4-[4-(trifluoromethyl)-1,3-thiazol-2-yl]-3,3′-bipyridin-6-yl}urea]
- inhibition at 1 µM: 45%

Compound: CCNC(=O)Nc1cc(-c2nc(C(F)(F)F)cs2)c(-c2cc(-c3nnc(C)o3)cnc2OC(C)CN(C)C)cn1 (stereo not drawn) [Example 114, 1-(2′-(1-(Dimethylamino)propan-2-yloxy)-5′-(5-methyl-1,3,4-oxadiazol-2-yl)-4-(4-(trifluoromethyl)thiazol-2-yl)-3,3′-bipyridin-6-yl)-3-ethylurea]
- inhibition at 1 µM: 97%

Compound: CCNC(=O)Nc1cc(-c2nc(C(F)(F)F)cs2)c(-c2cc(-c3nnc(C)o3)cnc2OCCN(CC)CC)cn1 [Example 115, 1-(2′-(2-(diethylamino)ethoxy)-5′-(5-methyl-1,3,4-oxadiazol-2-yl)-4-(4-(trifluoromethyl)thiazol-2-yl)-3,3′-bipyridin-6-yl)-3-ethylurea]
- inhibition at 1 µM: 96%

Compound: CCNC(=O)Nc1cc(-c2nc(C(F)(F)F)cs2)c(-c2cc(-c3nnc(C)o3)cnc2OCCN(C(C)C)C(C)C)cn1 [Example 116, 1-(2′-(2-(diisopropylamino)ethoxy)-5′-(5-methyl-1,3,4-oxadiazol-2-yl)-4-(4(trifluoromethyl)thiazol-2-yl)-3,3′-bipyridin-6-yl)-3-ethylurea]
- inhibition at 1 µM: 90%
